Results: patent US9409908B2 (priority 2012, dated 2016)
pKi: −log10 of the molar value. Structures can show the parent of a compound that is named as a salt. Where two headings read alike, the source gives them in different places.

Experiments:
[1] = target: purified human plasma kallikrein (Homo sapiens (Human), UniProt P03952); assay: biochemical; type: biochemical; details: read-out: Plasma Kallikrein Ki
[2] = target: purified human Factor XIa (Homo sapiens (Human), UniProt P03951); assay: biochemical; type: biochemical; details: read-out: Factor XIa Ki
Chain of purified human Factor XIa (P03951 whole entry, looked up): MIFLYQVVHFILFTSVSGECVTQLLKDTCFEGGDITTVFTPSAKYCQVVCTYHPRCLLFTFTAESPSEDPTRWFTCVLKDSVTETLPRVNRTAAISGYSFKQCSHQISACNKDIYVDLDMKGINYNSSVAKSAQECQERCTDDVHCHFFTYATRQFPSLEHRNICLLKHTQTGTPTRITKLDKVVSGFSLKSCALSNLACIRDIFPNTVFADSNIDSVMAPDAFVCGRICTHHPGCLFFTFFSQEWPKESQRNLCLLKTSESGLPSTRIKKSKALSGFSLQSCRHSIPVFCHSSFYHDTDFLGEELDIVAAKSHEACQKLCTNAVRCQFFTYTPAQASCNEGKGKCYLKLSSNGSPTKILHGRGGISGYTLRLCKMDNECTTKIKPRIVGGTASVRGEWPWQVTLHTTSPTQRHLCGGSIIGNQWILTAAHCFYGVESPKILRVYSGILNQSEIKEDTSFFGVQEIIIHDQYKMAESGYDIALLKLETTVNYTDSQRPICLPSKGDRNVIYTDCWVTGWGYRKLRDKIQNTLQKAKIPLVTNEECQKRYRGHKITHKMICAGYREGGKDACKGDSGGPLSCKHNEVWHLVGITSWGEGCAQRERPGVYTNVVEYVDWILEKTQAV
Chain of purified human Factor XIa (P03951 whole entry partner, looked up): as the sequence (P03951 whole entry, looked up) above

Chain of purified human plasma kallikrein (P03952 whole entry, looked up): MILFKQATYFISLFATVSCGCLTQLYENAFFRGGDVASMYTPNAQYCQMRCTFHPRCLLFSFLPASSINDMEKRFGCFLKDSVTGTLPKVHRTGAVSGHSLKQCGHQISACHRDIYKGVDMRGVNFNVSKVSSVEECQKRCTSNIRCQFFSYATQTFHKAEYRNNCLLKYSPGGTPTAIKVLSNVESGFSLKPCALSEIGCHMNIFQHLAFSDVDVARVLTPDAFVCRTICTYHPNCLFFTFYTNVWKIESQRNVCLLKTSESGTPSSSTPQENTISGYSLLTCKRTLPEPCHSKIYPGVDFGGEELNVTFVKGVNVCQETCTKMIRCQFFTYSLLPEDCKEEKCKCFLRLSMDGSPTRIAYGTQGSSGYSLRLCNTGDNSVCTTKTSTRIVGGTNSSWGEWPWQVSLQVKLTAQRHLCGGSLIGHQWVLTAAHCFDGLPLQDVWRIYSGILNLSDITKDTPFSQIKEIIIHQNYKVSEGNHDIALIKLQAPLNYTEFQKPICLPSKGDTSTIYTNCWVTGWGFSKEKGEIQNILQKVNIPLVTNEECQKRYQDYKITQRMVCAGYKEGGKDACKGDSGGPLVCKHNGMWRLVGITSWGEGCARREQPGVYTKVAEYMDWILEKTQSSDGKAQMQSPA
Chain of purified human plasma kallikrein (P03952 whole entry partner, looked up): as the sequence (P03952 whole entry, looked up) above

| Compound | pKi [1] | pKi [2] | pKi ([1]; TFA salt) | pKi ([2]; TFA salt) |
| --- | --- | --- | --- | --- |
| C[C@@H]1CCC[C@H](N2CCC(c3c(Br)ccc(Cl)c3F)=CC2=O)c2cc(ccn2)-c2ccc(C(N)=O)cc2NC1=O [Example 29, (14S)-14-[4-(6-Bromo-3-chloro-2-fluorophenyl)-6-oxo-1,2,3,6-tetrahydropyridin-1-yl]-10-methyl-9-oxo-8,16-diazatricyclo[13.3.1.0^2,7]nonadeca-1(19),2(7),3,5,15,17-hexaene-5-carboxamide, TFA salt] | 8.52 | 8.54 |  |  |
| CC(C)[C@H]1CCC[C@H](N2CCC(c3c(F)ccc(Cl)c3F)=CC2=O)c2cc(ccn2)-c2ccccc2NC1=O [Example 96, (10R,14S)-14-[4-(3-chloro-2,6-difluorophenyl)-6-oxo-1,2,3,6-tetrahydropyridin-1-yl]-10-(propan-2-yl)-8,16-diazatricyclo[13.3.1.0^2,7]nonadeca-1(18),2,4,6,15(19),16-hexaen-9-one, TFA salt] | 5.71 | < 6.37 |  |  |
| COC(=O)Nc1ccc2c(c1)NC(=O)[C@H](C)CCC[C@H](N1CCC(c3c(C#N)ccc4c(N)noc34)=CC1=O)c1cc-2cc(OC)n1 [Example 9, Methyl N-[(10R,14S)-14-[4-(3-amino-6-cyano-1,2-benzoxazol-7-yl)-6-oxo-1,2,3,6-tetrahydropyridin-1-yl]-17-methoxy-10-methyl-9-oxo-8,16-diazatricyclo[13.3.1.0^2,7]nonadeca-1(18),2,4,6,15(19),16-hexaen-5-yl]carbamate, TFA salt] | 7.34 | 7.48 |  |  |
| COC(=O)Nc1ccc2c(c1)NC(=O)[C@H](C)CCC[C@H](n1ncc(-c3c(F)ccc(Cl)c3F)cc1=O)c1cc-2ccn1 [Example 11, Methyl N-[(10R,14S)-14-[4-(3-chloro-2,6-difluorophenyl)-6-oxo-1,6-dihydropyridazin-1-yl]-10-methyl-9-oxo-8,16-diazatricyclo[13.3.1.0^2,7]nonadeca-1(19),2(7),3,5,15,17-hexaen-5-yl]carbamate, TFA salt] | 7.85 | 8.17 |  |  |
| C[C@@H]1CCC[C@H](N2CCC(c3c(F)ccc(Cl)c3F)=CC2=O)c2cc(ccn2)-c2ccc(Nc3cnccn3)cc2NC1=O [Example 93, (10R,14S)-14-[4-(3-Chloro-2,6-difluorophenyl)-6-oxo-1,2,3,6-tetrahydropyridin-1-yl]-10-methyl-5-[(pyrazin-2-yl)amino]-8,16-diazatricyclo[13.3.1.0^2,7]nonadeca-1(19),2(7),3,5,15,17-hexaen-9-one, 2 TFA salt] | 8.52 | 8.85 |  |  |
| C[C@@H]1CCC[C@H](N2CCC(c3c(Br)ccc(Cl)c3F)=CC2=O)c2cc(ccn2)-c2cc(F)c(F)cc2NC1=O [Example 206, (10R,14S)-14-[4-(6-bromo-3-chloro-2-fluorophenyl)-6-oxo-1,2,3,6-tetrahydropyridin-1-yl]-4,5-difluoro-10-methyl-8,16-diazatricyclo[13.3.1.0^2,7]nonadeca-1(19),2(7),3,5,15,17-hexaen-9-one, TFA salt] | 7.56 | 7.93 |  |  |
| C[C@@H]1CCC[C@H](N2CCC(c3c(F)ccc(Cl)c3F)=CC2=O)c2cc(ccn2)-c2cc(F)c(F)cc2NC1=O [Example 205, (10R,14S)-14-[4-(3-chloro-2,6-difluorophenyl)-6-oxo-1,2,3,6-tetrahydropyridin-1-yl]-4,5-difluoro-10-methyl-8,16-diazatricyclo[13.3.1.0^2,7]nonadeca-1(19),2(7),3,5,15,17-hexaen-9-one, TFA salt] | 7.05 | 7.16 |  |  |
| CC(=O)Nc1ccc(Cl)c(F)c1C1=CC(=O)N([C@H]2CCC[C@@H](C)C(=O)Nc3ccccc3-c3ccnc2c3)CC1 [Example 183, N-(4-chloro-3-fluoro-2-{1-[(10R,14S)-10-methyl-9-oxo-8,16-diazatricyclo[13.3.1.0^2,7]nonadeca-1(19),2(7),3,5,15,17-hexaen-14-yl]-6-oxo-1,2,3,6-tetrahydropyridin-4-yl}phenyl)acetamide] | 6.53 | 7.12 |  |  |
| C[C@@H]1CCC[C@H](N2CCC(c3c(-n4cnnn4)ccc(Cl)c3F)=CC2=O)c2cc(ccn2)-c2cc(F)ccc2NC1=O [Example 184, (10R,14S)-14-{4-[3-chloro-2-fluoro-6-(1H-1,2,3,4-tetrazol-1-yl)phenyl]-6-oxo-1,2,3,6-tetrahydropyridin-1-yl}-4-fluoro-10-methyl-8,16-diazatricyclo[13.3.1.0^2,7]nonadeca-1(19),2(7),3,5,15,17-hexaen-9-one] | 8.60 | > 10.30 |  |  |
| COC(=O)Nc1ccc2c(c1)NC(=O)C(C)(O)CCC[C@H](N1CCC(c3c(F)ccc(Cl)c3F)=CC1=O)c1cc-2ccn1 (stereo partly drawn) [Example 123, Methyl N-[(14S)-14-[4-(3-chloro-2,6-difluorophenyl)-6-oxo-1,2,3,6-tetrahydropyridin-1-yl]-10-hydroxy-10-methyl-9-oxo-8,16-diazatricyclo[13.3.1.0^2,7]nonadeca-1(19),2,4,6,15,17-hexaen-5-yl]carbamate, TFA salt] | 7.58 | 7.70 |  |  |
| COC(=O)Nc1ccc2c(c1)NC(=O)[C@H](C)CCC[C@H](N1CCC(c3cc(Cl)ccc3C)=CC1=O)c1cc-2ccn1 [Example 110, Methyl N-[(10R,14S)-14-[4-(5-chloro-2-methylphenyl)-6-oxo-1,2,3,6-tetrahydropyridin-1-yl]-10-methyl-9-oxo-8,16-diazatricyclo[13.3.1.0^2,7]nonadeca-1(18),2,4,6,15(19),16-hexaen-5-yl]carbamate] | 8.41 | 9.21 |  |  |
| CO[C@H]1[C@H](O)[C@@H](CO)OC(Nc2ccc3c(c2)NC(=O)[C@H](C)CCC[C@H](N2CCC(c4c(F)ccc(Cl)c4F)=CC2=O)c2cc-3ccn2)[C@@H]1O (stereo partly drawn) [Example 129, (10R,14S)-14-[4-(3-chloro-2,6-difluorophenyl)-6-oxo-1,2,3,6-tetrahydropyridin-1-yl]-5-{[(3R,4S,5R,6R)-3,5-dihydroxy-6-(hydroxymethyl)-4-methoxyoxan-2-yl]amino}-10-methyl-8,16-diazatricyclo[13.3.1.0^2,7]nonadeca-1(19),2,4,6,15,17-hexaen-9-one] | 7.66 | 8.08 |  |  |
| C[C@@H]1CCC[C@H](N2CCC(c3c(F)ccc(Cl)c3F)=CC2=O)c2cc(ccn2)-c2ccc(Nc3ccncn3)cc2NC1=O [Example 90, (10R,14S)-14-[4-(3-Chloro-2,6-difluorophenyl)-6-oxo-1,2,3,6-tetrahydropyridin-1-yl]-10-methyl-5-[(pyrimidin-4-yl)amino]-8,16-diazatricyclo[13.3.1.0^2,7]nonadeca-1(19),2(7),3,5,15,17-hexaen-9-one, 2 TFA salt] | 8.40 | 8.74 |  |  |
| COC(=O)Nc1ccc2c(c1)NC(=O)CCCCC[C@H](N1CCC(c3c(F)ccc(Cl)c3F)=CC1=O)c1cc-2ccn1 [Example 219, Methyl N-[(15S)-15-[4-(3-chloro-2,6-difluorophenyl)-6-oxo-1,2,3,6-tetrahydropyridin-1-yl]-9-oxo-8,17-diazatricyclo[14.3.1.0^2,7]icosa-1(20),2(7),3,5,16,18-hexaen-5-yl]carbamate, TFA salt] | 8.16 | 8.18 |  |  |
| COC(=O)Nc1ccc2c(c1)NC(=O)[C@H](C)CCC[C@H](N1CCC(c3c(C(C)=O)ccc(Cl)c3F)=CC1=O)c1cc(F)cc-2c1 [Example 191, Methyl N-[(10R,14S)-14-[4-(6-acetyl-3-chloro-2-fluorophenyl)-6-oxo-1,2,3,6-tetrahydropyridin-1-yl]-17-fluoro-10-methyl-9-oxo-8-azatricyclo[13.3.1.0^2,7]nonadeca-1(19),2,4,6,15,17-hexaen-5-yl]carbamate] | 7.72 | 9.64 |  |  |
| COC(=O)c1ccc2c(c1)-c1cccc(c1)[C@@H](N1CCC(c3cccc(Cl)c3F)=CC1=O)CCC[C@@H](C)C(=O)N2 [Example 169, Methyl (10R,14S)-14-[4-(3-chloro-2-fluorophenyl)-6-oxo-1,2,3,6-tetrahydropyridin-1-yl]-10-methyl-9-oxo-8-azatricyclo[13.3.1.0^2,7]nonadeca-1(18),2,4,6,15(19),16-hexaene-4-carboxylate] | 6.11 | < 6.38 |  |  |
| C[C@@H]1CCC[C@H](N2CCC(c3c(F)ccc(Cl)c3F)=CC2=O)c2cc(ccn2)-c2cc(C(=O)O)c(N)cc2NC1=O [Example 198, (10R,14S)-5-amino-14-[4-(3-chloro-2,6-difluorophenyl)-6-oxo-1,2,3,6-tetrahydropyridin-1-yl]-10-methyl-9-oxo-8,16-diazatricyclo[13.3.1.0^2,7]nonadeca-1(19),2,4,6,15,17-hexaene-4-carboxylic acid, 2 TFA salt] | 9.00 | > 10.30 |  |  |
| COC(=O)Nc1ccc2c(c1)NC(=O)[C@H](C)CCC[C@H](N1CCC(C3CCCC(C)C3)=CC1=O)c1cc-2ccn1 (single isomer, unassigned) [Example 226, TFA salt] |  |  | 6.78 | 7.61 |
| C[C@@H]1CCC[C@H](N2CCC(c3c(F)ccc(Cl)c3F)=CC2=O)c2cc(ccn2)-c2ccc(Br)cc2NC1=O [Example 69, (10R,14S)-5-Bromo-14-[4-(3-chloro-2,6-difluorophenyl)-6-oxo-1,2,3,6-tetrahydropyridin-1-yl]-10-methyl-8,16-diazatricyclo[13.3.1.0^2,7]nonadeca-1(19),2,4,6,15,17-hexaen-9-one, TFA salt] | 6.47 | 7.10 |  |  |
| C[C@@H]1CCC[C@H](N2CCC(c3c(F)ccc(Cl)c3F)=CC2=O)c2cc(ccn2)-c2ccc(Nc3cccnn3)cc2NC1=O [Example 196, (10R,14S)-14-[4-(3-chloro-2,6-difluorophenyl)-6-oxo-1,2,3,6-tetrahydropyridin-1-yl]-10-methyl-5-[(pyridazin-3-yl)amino]-8,16-diazatricyclo[13.3.1.0^2,7]nonadeca-1(19),2(7),3,5,15,17-hexaen-9-one, 2 TFA salt] | 8.82 | 9.10 |  |  |
| C[C@@H]1CCC[C@H](N2CCC(c3c(C#N)ccc(C#N)c3F)=CC2=O)c2cc(ccn2)-c2ccccc2NC1=O [Example 46, (10R,14S)-14-[4-(3,6-Dicyano-2-fluorophenyl)-6-oxo-1,2,3,6-tetrahydropyridin-1-yl]-10-methyl-8,16-diazatricyclo[13.3.1.0^2,7]nonadeca-1(19),2,4,6,15,17-hexaen-9-one, TFA salt] | 6.17 | 6.49 |  |  |
